Data on eleven molecules can be found in patent US20220315578A1, “BRD9 BIFUNCTIONAL DEGRADERS AND THEIR METHODS OF USE” (NOVARTIS AG, priority 2019, published 2022).

For this test, the target named is T1, BRD9-GFP (Homo sapiens, UniProt Q9H8M2).
T1 construct: CHYSEL (2A cis-acting hydrolase element) remnant after GFP; mCherry is split off as a separate protein (C); expressed in transfected cells; host or cells: HEK293A cells (Invitrogen R70507), lentiviral transduction with pLenti6-BRD9-GFP-CHYSEL-mCherry, blasticidin selection
T1 sequence (Q9H8M2 1-597): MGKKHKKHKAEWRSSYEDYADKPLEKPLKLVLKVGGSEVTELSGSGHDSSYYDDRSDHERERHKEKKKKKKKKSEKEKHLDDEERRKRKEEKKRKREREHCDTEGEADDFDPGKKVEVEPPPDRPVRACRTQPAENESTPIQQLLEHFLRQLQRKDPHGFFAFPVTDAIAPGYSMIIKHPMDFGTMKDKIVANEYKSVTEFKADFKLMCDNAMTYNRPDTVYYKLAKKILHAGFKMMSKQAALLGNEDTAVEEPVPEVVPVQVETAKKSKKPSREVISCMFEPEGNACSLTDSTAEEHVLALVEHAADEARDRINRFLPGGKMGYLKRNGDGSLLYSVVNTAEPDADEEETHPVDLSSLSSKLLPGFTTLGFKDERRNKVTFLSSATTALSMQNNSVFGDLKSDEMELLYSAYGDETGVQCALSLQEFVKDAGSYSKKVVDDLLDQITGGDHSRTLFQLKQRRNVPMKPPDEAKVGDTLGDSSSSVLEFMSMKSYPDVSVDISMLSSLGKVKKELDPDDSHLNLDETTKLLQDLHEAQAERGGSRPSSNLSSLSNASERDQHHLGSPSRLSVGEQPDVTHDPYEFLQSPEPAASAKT
Put plainly: BRD9-GFP protein abundance flow cytometry assay in HEK293A cells. It is filed as cell-based. The note with it: HEK293A-BRD9-GFP-CHYSEL-mCherry cells; for BRD9 Deg Amax %: 24 h, % protein remaining at the concentration at which maximum degradation is seen; for DC50: 24 h at 37° C., 10-point 1:3 dilution, concentration at which 50% maximal degradation was observed. On the procedure:
Compounds of the invention were tested in the following cellular assays. The terms in Table 1 are defined as follows: DC50 refers to the concentration at which 50% maximal degradation was observed; deg Amax is the extent of degradation and the value refers to the % protein remaining at the concentration at which maximum degradation is seen.
BRD9-GFP protein abundance flow cytometry assay in HEK293A cells: Degradation of BRD9 was measured in HEK293A cells expressing BRD9-GFP and mCherry from a stably integrated second generation bicistronic BRD9-GFP-CHYSELmCherry construct. Reduction of the GFP signal measured by flow cytometry served as readout for BRD9 degradation after degrader treatment.
The bicistronic BRD9-GFP-CHYSEL-mCherry construct is based on a pLenti6-DEST vector backbone where a GFP-CHYSEL-mCherry cassette was synthesized and inserted downstream of the DEST cassette by Gibson assembly resulting in the new gateway compatible vector pLenti6-DEST-GFP-CHYSEL-mCherry to allow Gateway cloning with pENTR221-BRD9 (w/o ATG) to obtain the final sensor construct pLenti6-BRD9-GFP-CHYSEL-mCherry.
HEK293 Å-BRD9-GFP-CHYSEL-mCherry sensor cells were generated by lentiviral vector transduction using the pLenti6-BRD9-GFP-CHYSEL-mCherry sensor construct described before. […] The mix was incubated for another 20 min at RT and then added to 1 ml of a freshly prepared suspension of HEK293FT cells in a well of a 6-well plate (concentration 1.2×10^6 cells/ml). 1 day after transfection, the medium was replaced with 1.5 ml of complete growth medium (DMEM high Glucose+10% FCS+1% L-Glutamine+1% NEAA+1% NaPyr.). 48 h post transfection supernatant containing viral transducing particles was collected and frozen at −80° C. […] Infection was performed with […] of collected supernatant containing viral transducing particles in 1 ml medium including 8 μg/ml polybrene. 24 h post infection, stably transfected cells were selected with blasticidin at a concentration of 8 μg/ml.
Stable HEK293 Å-BRD9-GFP-CHYSEL-mCherry cells were maintained in complete growth medium (DMEM high Glucose+10% FCS+1% L-Glutamine+1% NEAA+1% NaPyr.) with passaging performed twice per week. On Day 0, HEK293 Å-BRD9-GFP-CHYSEL-mCherry cells were seeded at 10,000 cells/well in a 96-well microtiter plate in […] complete medium. On Day 1, cells were treated in duplicate with 10-point 1:3 dilution series of compound using the HP D300 Digital Dispenser (Tecan). DMSO concentrations were normalized across the plate to 0.1%. On Day 2, after 24 h of incubation at 37° C., treatment media was discarded, cells rinsed with 100 ul/well PBS and then detached using 40 ul trypsin/well for 5 min. Trypsin was neutralized with 100 ul/well PBS+20% FCS). Flow cytometry was performed on the samples using the Beckman Coulter CytoFLEX flow cytometer. Cell identification was then performed using forward (FSC) vs. side scatter (SSC) plots. Single cell discrimination is performed using FSC-Width (FSC-W) vs. FSC-Height (FSC-H) plots. Median GFP/mCherry ratio values for 5,000 single cells are used to determine BRD9 levels. Median GFP/mCherry ratio values from HEK293 Å-mCherry are used as a background signal and thus defining 0% BRD9 signal. Median GFP/mCherry ratio values from DMSO treated HEK293 Å-BRD9-GFP-CHYSEL-mCherry are used to define 100% BRD9 signal for subsequent DC50 curves (concentration at 50% BRD9 degradation). Concentration response curves plotting relative reduction of the GFP/mCherry ratio signal (measured by flow cytometry) versus 10 compound concentrations (starting concentration […], 3 fold dilution steps) of the compounds allowed generation of DC50 values. Data is shown in Tables 2 and 3, in which, DC50 refers to the concentration at which 50% maximal degradation was observed; deg Amax is the extent of degradation and the value refers to the % protein remaining at the concentration at which maximum degradation is seen.
For orientation: Flow cytometry measures light scatter and fluorescence of single cells or particles in a stream.

As usually defined, the DC50 is the concentration at which degradation of the target reaches its halfway point. Lower therefore signals degradation at low concentration. As to `CCCCn1cc(-c2cc(OC)c(OCC3CCN(CC4CCN(C(=O)c5ccc(Cl)c(N6CCC(=O)NC6=O)c5)CC4)CC3)c(OC)c2)c2ccncc2c1=O` [Compound B8, 1-(5-(4-((4-((4-(2-butyl-1-oxo-1,2-dihydro-2,7-naphthyridin-4-yl)-2,6-dimethoxyphenoxy)methyl)piperidin-1-yl)methyl)piperidine-1-carbonyl)-2-chlorophenyl)dihydropyrimidine-2,4(1H,3H)-dione], the “BRD9 Deg Amax %” value came to 17.89% and it took 3 nM to reach half-maximal degradation (DC50).
The corresponding values for `COc1cc(-c2cn(C)c(=O)c3cnccc23)cc(OC)c1CN1CCC(OC2CCN(C(=O)COc3ccc(N4CCC(=O)NC4=O)cc3)CC2)CC1` [Compound A35, 1-(4-(2-(4-((1-(2,6-Dimethoxy-4-(2-methyl-1-oxo-1,2-dihydro-2,7-naphthyridin-4-yl)benzyl)piperidin-4-yl)oxy)piperidin-1-yl)-2-oxoethoxy)phenyl)dihydropyrimidine-2,4(1H,3H)-dione] are 13.19% and 31 nM.
With `CCCCn1cc(-c2cc(F)c(O[C@@H]3CCN(CCC4CCN(C(=O)c5ccc(OC)c(N6CCC(=O)NC6=O)c5)CC4)C[C@H]3F)c(F)c2)c2ccncc2c1=O` [Compound E14, 1-(5-(4-(2-((3R,4R)-4-(4-(2-butyl-1-oxo-1,2-dihydro-2,7-naphthyridin-4-yl)-2,6-difluorophenoxy)-3-fluoropiperidin-1-yl)ethyl)piperidine-1-carbonyl)-2-meth-oxyphenyl)dihydro-pyrimidine-2,4(1H,3H)-dione], the “BRD9 Deg Amax %” value came out at 18.10% and the DC50 stood at 1 nM.
With `CCCCn1cc(-c2cc(F)c(OC3CCN(CC4CCN(C(=O)c5ccc(OC)c(N6CCC(=O)NC6=O)c5)CC4)CC3)c(F)c2)c2ccncc2c1=O` [Compound E49, 1-(5-(4-((4-(4-(2-butyl-1-oxo-1,2-dihydro-2,7-naphthyridin-4-yl)-2,6-difluorophenoxy)piperidin-1-yl)methyl)piperidine-1-carbonyl)-2-methoxyphenyl)dihydropyrimidine-2,4(1H,3H)-dione], the “BRD9 Deg Amax %” value worked out at 19.41% and the DC50 was 7 nM.
On to `COc1cc(-c2cn(C)c(=O)c(C)c2C)cc(OC)c1OCC1CCN(CC2CCN(C(=O)c3ccc(Cl)c(N4CCC(=O)NC4=O)c3)CC2)CC1` [Compound A19, 1-(2-Chloro-5-(4-((4-((2,6-dimethoxy-4-(1,4,5-trimethyl-6-oxo-1,6-dihydropyridin-3-yl)phenoxy)methyl)piperidin-1-yl)methyl)piperidine-1-carbonyl)phenyl)dihydropyrimidine-2,4(1H,3H)-dione], for which the “BRD9 Deg Amax %” value is listed as 17.02% and half-maximal degradation (DC50) was put at 3 nM.
In the same order, the values of `CCCCn1cc(-c2ccc(OC3CCN(CC4CCN(C(=O)c5ccc(OC)c(N6CCC(=O)NC6=O)c5)CC4)CC3)c(OC)c2)c2ccncc2c1=O` [Compound B5, 1-(5-(4-((4-(4-(2-butyl-1-oxo-1,2-dihydro-2,7-naphthyridin-4-yl)-2-methoxyphenoxy)piperidin-1-yl)methyl)piperidine-1-carbonyl)-2-methoxyphenyl)dihydropyrimidine-2,4(1H,3H)-dione] are 13.14% and 4 nM.
As for `COc1cc(-c2cn(C)c(=O)c(C)c2C)cc(OC)c1CCN1CCC(OC2CCN(C(=O)c3cccc(N4CCC(=O)NC4=O)c3)CC2)CC1` [Compound A22, 1-(3-(4-((1-(2,6-Dimethoxy-4-(1,4,5-trimethyl-6-oxo-1,6-dihydropyridin-3-yl)phenethyl)piperidin-4-yl)oxy)piperidine-1-carbonyl)phenyl)dihydropyrimidine-2,4(1H,3H)-dione], the “BRD9 Deg Amax %” value worked out at 11.18% and the DC50 was found to be 6 nM.
Turning to `COc1cc(-c2cn(C)c(=O)c3cnccc23)c(OC)cc1/C=C/C(=O)N1CCC(OC2CCN(C(=O)c3ccc(OC)c(N4CCC(=O)NC4=O)c3)CC2)CC1` [Compound A27, (E)-1-(5-(4-((1-(3-(2,5-dimethoxy-4-(2-methyl-1-oxo-1,2-dihydro-2,7-naphthyridin-4-yl)phenyl)acryloyl)piperidin-4-yl)oxy)piperidine-1-carbonyl)-2-methoxyphenyl)dihydropyrimidine-2,4(1H,3H)-dione], the “BRD9 Deg Amax %” value was determined as 12.02% and half-maximal degradation (DC50) was put at 49 nM.
Consider `CCCCn1cc(-c2cc(OC)c(CN3CCC(OC4CCN(C(=O)c5ccc(OC)c(N6CCC(=O)NC6=O)c5)CC4)CC3)cc2OC)c2ccncc2c1=O` [Compound B3, 1-(5-(4-((1-(4-(2-butyl-1-oxo-1,2-dihydro-2,7-naphthyridin-4-yl)-2,5-dimethoxybenzyl)piperidin-4-yl)oxy)piperidine-1-carbonyl)-2-methoxyphenyl)dihydropyrimidine-2,4(1H,3H)-dione], for which the “BRD9 Deg Amax %” value is reported as 10.95% and half-maximal degradation (DC50) was put at 27 nM.
Regarding `CCCCn1cc(-c2ccc(O[C@H]3CCN(CC4CCN(C(=O)c5ccc(OC)c(N6CCC(=O)NC6=O)c5)CC4)C[C@@H]3F)c(OC)c2)c2ccncc2c1=O` [Compound E32, 1-(5-(4-(((3S,4S)-4-(4-(2-Butyl-1-oxo-1,2-dihydro-2,7-naphthyridin-4-yl)-2-methoxyphenoxy)-3-fluoropiperidin-1-yl)methyl)piperidine-1-carbonyl)-2-methoxyphenyl)dihydropyrimidine-2,4(1H,3H)-dione], the “BRD9 Deg Amax %” value is recorded as 17.58% and the DC50 was found to be 1 nM.
In the case of `CCCCn1cc(-c2cc(F)c(CN3CCC(OC4CCN(C(=O)c5ccc(OC)c(N6CCC(=O)NC6=O)c5)CC4)CC3)c(F)c2)c2ccncc2c1=O` [Compound E33, 1-(5-(4-((1-(4-(2-butyl-1-oxo-1,2-dihydro-2,7-naphthyridin-4-yl)-2,6-difluorobenzyl)piperi-din-4-yl)oxy)piperi-dine-1-carbonyl)-2-methoxyphenyl)di-hydro-pyrimidine-2,4(1H,3H)-dione], the “BRD9 Deg Amax %” value was found to be 14.29% and the half-maximal degradation concentration (DC50) stood at 5 nM.
